Data taken from patent publication US9334246B2, “Substituted triazines for malaria treatment and chemoprophylaxis” (The United States of America, as represented by the …, priority 2013, dated 2016).

Experiments:
Type in all cases: cell-based, Plasmodium falciparum
P. falciparum D6 = test: Malaria SYBR Green Fluorescence Assay, D6 strain; details: for D6: SYBR Green Assay
P. falciparum C235 = test: Malaria SYBR Green Fluorescence Assay, C235 strain; details: for C235: SYBR Green Assay
P. falciparum W2 = test: Malaria SYBR Green Fluorescence Assay, W2 strain; details: for W2: SYBR Green Assay

| SMILES | D6 (SYBR Green Assay IC50) (P. falciparum D6) [µg/mL] | C235 (SYBR Green Assay IC50) (P. falciparum C235) [µg/mL] | W2 (SYBR Green Assay IC50) (P. falciparum W2) [µg/mL] | D6 (P. falciparum D6) [ng/mL] | C235 (P. falciparum C235) [ng/mL] | W2 (P. falciparum W2) [ng/mL] |
| --- | --- | --- | --- | --- | --- | --- |
| CN1CCC(CNc2nc(-c3ccc(C(Cl)(Cl)Cl)cc3)nc(C(Cl)(Cl)Cl)n2)CC1 [Cmpd 511] | 0.077 | 0.056 | 0.034 |  |  |  |
| CN1CCCC1CCNc1nc(-c2ccccc2[N+](=O)[O-])nc(C(Cl)(Cl)Cl)n1 (stereo not drawn) [Cmpd 524] | 0.108 | 0.07 | 0.028 |  |  |  |
| FC(F)(F)c1cccc(-c2nc(NCCc3cnccn3)nc(C(Cl)(Cl)Cl)n2)c1 [Cmpd 539] | 0.325 | 0.27 | 0.098 |  |  |  |
| ClC(Cl)(Cl)c1nc(NCCc2cnccn2)nc(-c2ccccc2)n1 [Cmpd 540] | 0.151 | 0.213 | 0.088 |  |  |  |
| CC1(C)C=Cc2cc(-c3nc(NCCc4cnccn4)nc(C(Cl)(Cl)Cl)n3)ccc2O1 [Cmpd 545] | 0.338 | 0.3 | 0.147 |  |  |  |
| CN1CCC(Nc2nc(-c3ccccc3[N+](=O)[O-])nc(C(Cl)(Cl)Cl)n2)CC1 [Cmpd 550] | 0.04805 | 0.03585 | 0.02059 |  |  |  |
| CN(C)CCCNc1nc(-c2ccc(Cl)cc2)nc(C(Cl)(Cl)Cl)n1 [Cmpd 560] | 0.02 | 0.018 | 0.009 |  |  |  |
| CN(C)CCCNc1nc(C(Cl)(Cl)Cl)nc(C(Cl)(Cl)Cl)n1.ClC(Cl)(Cl)c1ccc(C(Cl)(Cl)Cl)cc1 [Cmpd 604] | 0.224 | 0.628 | 0.363 |  |  |  |
| NC1CCN(c2nc(-c3ccccc3)nc(C(Cl)(Cl)Cl)n2)CC1 [Compound 621, NC1CCN(CC1)C1═NC(═NC(═N1)C1═CC═CC═C1)C(Cl)(Cl)Cl] | 0.29 | 0.319 | 0.101 |  |  |  |
| CC(C)(C)c1ccc(-c2nc(N3CCC(N)CC3)nc(C(Cl)(Cl)Cl)n2)cc1 [Compound 624, CC(C)(C)C1═CC═C(C═C1)C1═NC(═NC(═N1)C(Cl)(Cl)Cl)N1CCC(N)CC1] | 0.091 | 0.062 | 0.043 |  |  |  |
| NC1CCN(c2nc(-c3cccc(C(F)(F)F)c3)nc(C(Cl)(Cl)Cl)n2)CC1 [Compound 625, NC1CCN(CC1)C1═NC(═NC(═N1)C1═CC═CC(═C1)C(F)(F)F)C(Cl)(Cl)Cl] | 0.047 | 0.02 | 0.012 |  |  |  |
| CS(=O)(=O)c1ccc(-c2nc(N3CCC(N)CC3)nc(C(Cl)(Cl)Cl)n2)cc1 [Compound 627, CS(═O)(═O)C1═CC═C(C═C1)C1═NC(═NC(═N1)C(Cl)(Cl)Cl)N1CCC(N)CC1] | 0.085 | 0.048 | 0.025 |  |  |  |
| NC1CCN(c2nc(-c3ccc(Cl)cc3)nc(C(Cl)(Cl)Cl)n2)CC1 [Compound 630, NC1CCN(CC1)C1═NC(═NC(═N1)C(Cl)(Cl)Cl)C1═CC═C(Cl)C═C1] | 0.012 | 0.013 | 0.01 |  |  |  |
| NC1CCN(c2nc(-c3ccccc3[N+](=O)[O-])nc(C(Cl)(Cl)Cl)n2)CC1 [Compound 632, NC1CCN(CC1)C1═NC(═NC(═N1)C(Cl)(Cl)Cl)C1═C(C═CC═C1)[N+]([O−])═O] | 0.064 | 0.058 | 0.04 |  |  |  |
| NC1CCN(c2nc(-c3cccc(Cl)c3)nc(C(Cl)(Cl)Cl)n2)CC1 [Compound 633, NC1CCN(CC1)C1═NC(═NC(═N1)C(Cl)(Cl)Cl)C1═CC(Cl)═CC═C1] | 0.01 | 0.01 | 0.008 |  |  |  |
| COc1cc(OC)cc(-c2nc(N3CCC(N)CC3)nc(C(Cl)(Cl)Cl)n2)c1 [Compound 635, COC1═CC(═CC(OC)═C1)C1═NC(═NC(═N1)C(Cl)(Cl)Cl)N1CCC(N)CC1] | 0.259 | 0.218 | 0.135 |  |  |  |
| FC(F)(F)Oc1ccc(Nc2nc(NCCN3CCCC3)nc(C(Cl)(Cl)Cl)n2)cc1 [Compound 656, FC(F)(F)OC1═CC═C(NC2═NC(═NC(NCCN3CCCC3)═N2)C(Cl)(Cl)Cl)C═C1] |  |  |  | 3 | 7 | 2 |
| CSc1ccc(-c2nc(NCC3(N)CCCCC3)nc(C(Cl)(Cl)Cl)n2)cc1 [Compound 664, CSC1═CC═C(C═C1)C1═NC(NCC2(N)CCCCC2)═NC(═N1)C(Cl)(Cl)Cl] |  |  |  | 18 | 47 | 21 |
| NC1(CNc2nc(-c3ccc(Cl)c(Cl)c3)nc(C(Cl)(Cl)Cl)n2)CCCCC1 [Compound 670, NC1(CNC2═NC(═NC(═N2)C2═CC(Cl)═C(Cl)C═C2)C(Cl)(Cl)Cl)CCCCC1] |  |  |  | 22 | 38 | 20 |
| COc1ccc(-c2nc(NCC3(N)CCCC3)nc(C(Cl)(Cl)Cl)n2)cc1OC [Compound 674, COC1═C(OC)C═C(C═C1)C1═NC(NCC2(N)CCCC2)═NC(═N1)C(Cl)(Cl)Cl] |  |  |  | 8 | 18 | 6 |
| NC1(CNc2nc(-c3ccc(Cl)cc3)nc(C(Cl)(Cl)Cl)n2)CC1 [Compound 678, NC1(CNC2═NC(═NC(═N2)C2═CC═C(Cl)C═C2)C(Cl)(Cl)Cl)CC1] |  |  |  | 11 | 20 | 12 |
| Cc1ccc(-c2nc(NCC3(N)CC3)nc(C(Cl)(Cl)Cl)n2)cc1 [Compound 681, CC1═CC═C(C═C1)C1═NC(NCC2(N)CC2)═NC(═N1)C(Cl)(Cl)Cl] |  |  |  | 593 | 750 | 328 |

Continued, in another order:

| D6 (SYBR Green Assay IC50) (P. falciparum D6) [µg/mL] | C235 (SYBR Green Assay IC50) (P. falciparum C235) [µg/mL] | W2 (SYBR Green Assay IC50) (P. falciparum W2) [µg/mL] | SMILES | D6 (P. falciparum D6) [ng/mL] | C235 (P. falciparum C235) [ng/mL] | W2 (P. falciparum W2) [ng/mL] |
| --- | --- | --- | --- | --- | --- | --- |
| 0.416 | 0.273 | 0.088 | CN1CCC(CNc2nc(-c3ccc(S(C)(=O)=O)cc3)nc(C(Cl)(Cl)Cl)n2)CC1 [Cmpd 510] |  |  |  |
| 0.103 | 0.057 | 0.03 | CN1CCC(CNc2nc(-c3ccccc3)nc(C(Cl)(Cl)Cl)n2)CC1 [Cmpd 512] |  |  |  |
| 0.079 | 0.028 | 0.026 | CN1CCC(CNc2nc(-c3cc(Cl)cc(Cl)c3)nc(C(Cl)(Cl)Cl)n2)CC1 [Cmpd 514] |  |  |  |
| 0.292 | 0.181 | 0.083 | CN1CCC(CNc2nc(-c3ccccc3[N+](=O)[O-])nc(C(Cl)(Cl)Cl)n2)CC1 [Cmpd 516] |  |  |  |
| 0.023 | 0.012 | 0.007 | COc1ccc(-c2nc(NCC3CCN(C)CC3)nc(C(Cl)(Cl)Cl)n2)c2ccccc12 [Cmpd 517] |  |  |  |
| 0.082 | 0.045 | 0.019 | COc1ccc(-c2nc(NCC3CCN(C)CC3)nc(C(Cl)(Cl)Cl)n2)cc1OC [Cmpd 520] |  |  |  |
| 0.045 | 0.023 | 0.014 | COc1cc(OC)cc(-c2nc(NCC3CCN(C)CC3)nc(C(Cl)(Cl)Cl)n2)c1 [Cmpd 521] |  |  |  |
| 0.043 | 0.041 | 0.033 | COc1cc(OC)cc(-c2nc(N3CCCNCC3)nc(C(Cl)(Cl)Cl)n2)c1 [Cmpd 525] |  |  |  |
| 0.026 | 0.024 | 0.021 | COc1cc(OC)cc(-c2nc(NC3CC(C)(C)NC(C)(C)C3)nc(C(Cl)(Cl)Cl)n2)c1 [Cmpd 527] |  |  |  |
| 0.035 | 0.033 | 0.023 | CCN1CCCC(Nc2nc(-c3cc(OC)cc(OC)c3)nc(C(Cl)(Cl)Cl)n2)C1 (stereo not drawn) [Cmpd 528] |  |  |  |
| 0.059 | 0.055 | 0.055 | COc1cc(OC)cc(-c2nc(NCC3(N)CCOCC3)nc(C(Cl)(Cl)Cl)n2)c1 [Cmpd 529] |  |  |  |
| 0.013 | 0.013 | 0.014 | COc1cc(OC)cc(-c2nc(NCC3(N)CCCC3)nc(C(Cl)(Cl)Cl)n2)c1 [Cmpd 530] |  |  |  |
| 0.069 | 0.07 | 0.053 | CN1CCCN(c2nc(-c3ccccc3[N+](=O)[O-])nc(C(Cl)(Cl)Cl)n2)CC1 [Cmpd 548] |  |  |  |
| 0.503 | 0.663 | 0.236 | CN1CCN(c2nc(-c3ccccc3[N+](=O)[O-])nc(C(Cl)(Cl)Cl)n2)CC1 [Cmpd 549] |  |  |  |
| 0.07027 | 0.05653 | 0.0356 | CCN1CCC(CNc2nc(-c3ccccc3[N+](=O)[O-])nc(C(Cl)(Cl)Cl)n2)CC1 [Cmpd 551] |  |  |  |
| 0.1704 | 0.1756 | 0.07605 | O=[N+]([O-])c1ccccc1-c1nc(N2CCCN(CCO)CC2)nc(C(Cl)(Cl)Cl)n1 [Cmpd 552] |  |  |  |
| 0.01863 | 0.01596 | 0.01506 | CC1(C)C=Cc2cc(-c3nc(NCCN4CCCC4)nc(C(Cl)(Cl)Cl)n3)ccc2O1 [Cmpd 553] |  |  |  |
| 0.431 | 0.409 | 0.175 | COc1ccc(-c2nc(N3CCC(N)CC3)nc(C(Cl)(Cl)Cl)n2)c2ccccc12 [Compound 620, COC1═CC═C(C2═NC(═NC(═N2)C(Cl)(Cl)Cl)N2CCC(N)CC2)C2═C1C═CC═C2] |  |  |  |
